# Experimental data reported in patent publication US20260284005A1, “INHIBITING MITOGEN-ACTIVATED PROTEIN (MAP)/ERK KINASE (MEK)1 AND MEK2 AND RELATED METHODS OF TREATMENT” (priority 2023, published 2026).
# Experiments:
# pMEK = assay: MEK activation after 100 nM drug for 2 hours (CRAF-bypass); type: cell-based, human
# Experimental: The tumor cells with 100 nM of each drug were exposed for 2 hours and MEK and ERK activation levels were evaluated.
# [1] = test system: Colon-26 (KRAS-G12D) colorectal tumor; assay: Colon-26 syngeneic tumor model (tumor volume, body weight); type: in vivo, balb/c mice
# Excerpt: Colon-26 (KRAS-G12D) syngeneic colorectal tumor model in balb/c mice. Selumetinib and binimetinib were commercially purchased.
# pERK in Colon-26 tumor = assay: Colon-26 tumor PK and PD (pERK); type: in vivo, mice; conditions: Colon-26, single dose 12.5 to 150 mg/kg PO
# [2] = test system: A549 (KRAS^G12S) NSCLC xenograft; assay: A549 NSCLC xenograft tumor model; type: in vivo, athymic nude mice
# Excerpt: In addition, the drug doses and schedules used for binimetinib and encorafenib in these studies were consistent with or exceeded what was provided in their NDAs to the FDA for human-relevant exposures in rodent models.
# A549 (KRAS^G12S) NSCLC Xenograft Tumor Model in Athymic Nude Mice. Binimetinib and encorafenib were commercially purchased.
# [3] = test system: A375 (BRAF V600E) melanoma xenograft; assay: A375 melanoma xenograft tumor model; type: in vivo, athymic nude mice
# Excerpt: A375 (BRAFV600E) Melanoma Xenograft Tumor Model in Athymic Nude Mice. Binimetinib and encorafenib were commercially purchased.
# [4] = test system: MIA PaCa-2 (KRAS G12C) pancreatic xenograft; assay: MIA PaCa-2 pancreatic xenograft tumor model; type: in vivo, athymic nude mice
# Excerpt: Gemcitabine (antimetabolite), nab-paclitaxel (taxane) and fluorouracil (5-FU; antimetabolite) were commercially purchased. All studies started with 12 animals, per group. Mice within specific groups randomized for cross-over of treatments (≥day 42). […] Additive models: MIA PaCa-2, PA-TU-8988S, CFPAC-1, HPAF-II, Panc 03.27, PSN-1, Panc 10.05, Capan-1, HPAC, PANC-1.
# [5] = test system: SK-MEL-2 (NRAS Q61R) melanoma xenograft; assay: SK-MEL-2 melanoma xenograft tumor model; type: in vivo, mice
# [6] = test system: HT-29 BRAF^V600E colorectal cancer xenograft; assay: HT-29 colorectal xenograft tumor model; type: in vivo, athymic nude mice; conditions: HT-29 BRAFV600E xenograft
# Excerpt: An integrated translational platform with integrated bioinformatics utilized patient-aligned model systems was used to identify key factors that help predict response to Compound A and its unique DCI profile.
# [7] = test system: KRAS-, NRAS- and BRAF-mutated solid tumor rodent models; assay: Human and murine solid tumor models (summary)
# Excerpt: CRC=colorectal cancer, NSCLC=non-small cell lung cancer; MEL—melanoma; PANC=pancreatic cancer. Tumor Growth Inhibition; TGI %=[1−(Ti−T0)/(Ci−C0)]×100; T=treatment groups; C=control groups.
# [8] = test system: tumor models (cell lines); assay: Humanized 3D tumor growth assay (3D-TGA), tumor model panel / other cell lines; type: cell-based, human; conditions: 3D-TGA
# Excerpt: The humanized 3D tumor growth assay (3D-TGA) is an extracellular matrix (ECM)-based, 3D tumor model that more faithfully mimics the human tumor microenvironment (TME) with the goal of improving translational fidelity to patients. See Casneuf T, et al., “Interleukin-6 is a potential therapeutic target in interleukin-6 dependent, estrogen receptor-α-positive breast cancer,” Breast Cancer (Dove Med Press). […] MEK inhibition in the 3D-TGA. […]
# All cell lines were validated by IDEXX upon receipt and assay setup. See Appendix for full cell line list.
# Cells were seeded in 3D cultures in a black-walled, clear-bottom, non-tissue culture treated, 384-well plate (3000 cells per well) using a 1:1 mixture of BME and a custom media and grown in a humidified incubator with 5% CO2 and 5% O2, which approximates capillary levels for each gas, at 37° C. […] Cells were assessed for cell proliferation using EdU cell proliferation staining. […] Cells were permeabilized with 30 μL of filtered 0.5% Triton X-100 in PBS for 20 minutes at room temperature. Samples were washed twice gently with PBS. Cells were stained utilizing click-iT chemistry by adding 20 μL of staining cocktail containing 2 mM copper sulfate, 8 μM sulfo-Cy5-azide, and 20 mg/ml ascorbic acid in PBS and incubated 30-60 minutes at room temperature in dark. […] Plates were imaged with the Molecular Devices Pico ImageXpress. Images were segmented and percentage of cells with EdU incorporation was quantified to calculate antiproliferative effects of the drugs.
# Five (5)-ethynyl-2′-deoxyuridine (EdU) data was represented as percentage EdU positive cells quantified by high content imaging from the Molecular Devices ImageXpress® Pico.
# NCI-H2087 cells = assay: 3D-TGA; type: cell-based; conditions: Homo sapiens, NCI-H2087, read-out: 3D-TGA response
# Method in brief: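 First, 3000 cells per well were embedded 1:1 in BME and custom medium and cultured at 37° C with 5% CO2 and 5% O2. Next, EdU-labelled cells were permeabilized and click-stained with sulfo-Cy5-azide. Finally, imaging quantified EdU incorporation to derive drug effects on proliferation.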
# PaCaDD-137 cells = assay: 3D-TGA; type: cell-based; conditions: Homo sapiens
# NCI-H747 (colorectal) = assay: 3D-TGA; type: cell-based; conditions: Homo sapiens, read-out: 3D-TGA response
# PA-TU-8902 (pancreatic) = assay: 3D-TGA; type: cell-based; conditions: Homo sapiens, PaTu 8902; pancreatic PA-TU-8902; read-out: 3D-TGA response
# NCI-N87 (gastric) = assay: 3D-TGA; type: cell-based, human
# HCC-38 (breast) = assay: 3D-TGA; type: cell-based, human; conditions: breast HCC-38
# OVCAR-3 (ovarian) = assay: 3D-TGA; type: cell-based, human; conditions: ovarian OVCAR-3
# [9] = test system: Capan-2 (KRAS G12V) pancreatic xenograft; conditions: 21 days
# [10] = Rodent plasma pharmacokinetics
# [11] = MIA PaCa-2 KRAS G12C xenograft, 21 days
compound,measurement,setting,value
"CNS(=O)(=O)Nc1cccc(Cc2c(CN(C)C)c3ccc(OC(=O)N(C)C)cc3oc2=O)c1F [Compound A, 4-((dimethylamino)methyl)-3-(2-fluoro-3-((N-methylsulfamoyl)amino)benzyl)-2-oxo-2H-chromen-7-yl dimethylcarbamate]",pMEK after treatment of cells,"pMEK; 100 nM Compound A, within 2-hours",reductions in phosphorylated MEK (pMEK)
same,pMEK (MEK activation),"pMEK; A549 KRAS mutant NSCLC tumor cells, 100 nM, 2 hours",decrease in MEK and ERK activation
same,mice with tumor regression,"[1]; Colon-26, first 10 days of dosing",5 of 8
same,BWL vs binimetinib and selumetinib,[1]; Colon-26 KRAS-G12D,lower BWL
same,tumor growth inhibition vs binimetinib and selumetinib,[1]; Colon-26 KRAS-G12D,greater tumor growth inhibition
same,tumor pERK,pERK in Colon-26 tumor,transiently inhibited activated pERK in a dose-dependent manner
same,tumor growth inhibition vs binimetinib monotherapy,[2],greater tumor growth inhibition
same,tumor growth inhibition vs binimetinib monotherapy,[3],greater tumor growth inhibition
same,TGI vs single or combination chemotherapy,"[4]; MIA PaCa-2, Compound A alone",greater tumor growth inhibition (TGI)
same,BWL,[4]; [11],insignificant BWL
same,median BWL,[4]; [11],≤ 3 % of baseline
same,tumor response,[4]; [11],tumor regression
same,tumor regressions,[5],Midcycle tumor regressions
same,"tumor growth inhibition, monotherapy",[6],superior tumor growth inhibition to binimetinib
same,tumor response in head-to-head studies,"[7]; KRAS-, NRAS-, BRAF-mutated rodent models, while maintaining body weight",tumor stasis or regression
same,tumor reduction,"[7]; all doses, all models (MIA PaCa-2, Capan-2, SK-MEL-2, A549, Colon-26)",Significant tumor reduction
same,median body weight loss,"[7]; top doses, xenograft tumor models",3-6 % of baseline
same,effect of adding 1 uM Compound A to chemotherapy agents,"[8]; most pancreatic cell lines, gemcitabine, paclitaxel, 5-fluorouracil",additive effect
same,antagonism on addition to chemotherapy,"[8]; pancreatic tumor models, all cases",did not have any antagonistic effect
same,IC50,NCI-H2087 cells,> 1 µM
same,IC50,PaCaDD-137 cells,> 10 µM
same,IC50,NCI-H747 (colorectal),< 1 µM
same,IC50,PA-TU-8902 (pancreatic),> 1 µM
same,3D-TGA response,NCI-N87 (gastric),resistant
same,3D-TGA response,HCC-38 (breast),resistant
same,3D-TGA response,OVCAR-3 (ovarian),resistant
same,BWL,[9]; Capan-2 (KRAS G12V) xenograft,insignificant BWL
same,tumor response,"[9]; Capan-2 (KRAS G12V), vs sotorasib or adagrasib",tumor regression
same,TGI,"[9]; KRAS-G12V Capan-2 PDAC tumors, 150 mg/kg BID po",up to 84%
same,half-life,[10],1.2 to 1.3 h
